Measurements: patent publication EP0937727A1, “Soluble crystalline cefuroxime axetil” (priority 1998, dated 1999)
“And” between values parts separate entries of the source, which are not always exact repeats. Equal values may be shown once.

Experiments:
[1] = Dissolution (solubility) test of the active ingredient from standardised tablets according to USP 23, p. 316; assay type: physicochemical; details: test gemäß USP 23, nach 45 Minuten
From the text: Im Anschluß beschreibt USP 23, Seite 316 einen Test für die Bestimmung der Bioverfügbarkeit dieses, aus beiden Diastereomeren etwa im Verhältnis von 1:1 bestehenden amorphen Produktes. Hierzu wird die Löslichkeit des Wirkstoffes aus einer standardisierten Tablettenformulierung in […] bestimmt. Zuläßlich sind solche Produkte, bei denen in 15 Minuten mindestens 60% des angegebenen Gehaltes an Wirkstoff und innerhalb von 45 Minuten mindestens 75% des angegebenen Wirkstoffes aufgelöst sind.
Das Produkt gemäß EP-A1 0 757 991 läßt sich nach der dortigen Vorschrift erzeugen. Die Löslichkeit des Wirkstoffes (aus der tablettierten Form) wie im folgenden beschrieben und bestimmt nach dem Standardverfahren gem. USP 23, S. 316, erreicht jedoch nach 45 Minuten nur etwas mehr als 40 %.
Dann wurden mit dem so gewonnenen Wirkstoff einerseits, dem erfindungsgemäßen Wirkstoff andererseits Tabletten hergestellt, und zwar nach folgendem Verfahren: 305 mg kristallines Cefuroxim axetil wurden mit 50 mg Ac disol, 50 mg Avicel pH 105, 7,5 mg Aerosil 200, 2,5 mg Magnesiumstearat und 7,5 Explotab trocken vermischt. Das Gemisch wurde trocken verpreßt und granuliert. Das so erhaltene Granulat wurde mit 7,5 mg Explotab und 7,5 mg Natriumlaurylsulfat vermischt und das erhaltene Gemisch wurde dann zu Tabletten gepreßt.
Mit den so erhaltenen Tabletten wurde jeweils der Löslichkeitstest gemäß USP 23 durchgeführt. […]

[2] = known crystalline form of the prior art; compared with the prescribed minimum (60% in 15 Minuten, 75% in 45 Minuten); cited from earlier work

CO/N=C(\C(=O)N[C@@H]1C(=O)N2C(C(=O)OC(C)OC(C)=O)=C(COC(N)=O)CS[C@H]12)c1ccco1 (stereo partly drawn) [Produkt gemäß EP-A1 0 757 991, (R,S)-Cefuroxim axetil]
Löslichkeit (Grad der Auflösung des Wirkstoffes) [1]: > 40%

CO/N=C(\C(=O)N[C@@H]1C(=O)N2C(C(=O)OC(C)OC(C)=O)=C(COC(N)=O)CS[C@H]12)c1ccco1 (single isomer, unassigned) [Beispiel 2]
Löslichkeit (Grad der Auflösung des Wirkstoffes) ([1]; listed as kristalline Form von (R,S)-Cefuroxim axetil gemäß USP 23): > 50% and ~75%

CO/N=C(\C(=O)N[C@@H]1C(=O)N2C(C(=O)OC(C)OC(C)=O)=C(COC(N)=O)CS[C@H]12)c1ccco1 (stereo partly drawn) [kristalline (R,S)-Cefuroxim axetil, (R,S)-Cefuroxim axetil]
Löslichkeit im Test gemäß USP 23 [2]: bei weitem nicht die vorgeschriebene Mindestlöslichkeit
